Values after ≈ are worked out from the molar mass of the structure shown. Active and inactive are the calls of the source. The rule behind the calls is not given here.

A word on the MIC: it is the least concentration at which growth counts as inhibited. Lower therefore signals greater potency.

In the first experiment the test system is Mycobacterium tuberculosis. The experiment can be described thus: Antitubercular activity against Mycobacterium tuberculosis H37Rv ATCC 27294 measured every 24 hr by BACTEC 460 radiometric assay. The experiment is classed as functional. To be noted: H37Rv ATCC 27294, 24 h.
With `O=c1c(O)c(-c2ccc(O)c(O)c2)oc2cc(O)cc(O)c12` [QUERCETIN], 50 µg/mL (≈ 165 µM) was the least that counted as inhibitory (MIC).
`CO[C@H]1/C=C/O[C@@]2(C)Oc3c(C)c(O)c4c(O)c(c(/C=N/N5CCN(C)CC5)c(O)c4c3C2=O)NC(=O)/C(C)=C\C=C\[C@H](C)[C@H](O)[C@@H](C)[C@@H](O)[C@@H](C)[C@H](OC(C)=O)[C@@H]1C` [RIFAMPIN] came in with an MIC of 2 µg/mL (≈ 2.43 µM).
Turning to `O=c1cc(-c2ccc(O)c(O)c2)oc2cc(O)cc(O)c12` [LUTEOLIN], the lowest concentration to inhibit growth (MIC) was 25 µg/mL (≈ 87.3 µM).
Compound `O=c1cc(-c2ccccc2)oc2cc(O)c(O)c(O)c12` [BAICALEIN] gave an MIC of 50 µg/mL (≈ 185 µM).
`CN[C@@H]1[C@H](O[C@H]2[C@H](O[C@H]3[C@H](O)[C@@H](O)[C@H](N=C(N)N)[C@@H](O)[C@@H]3N=C(N)N)O[C@@H](C)[C@]2(O)C=O)O[C@@H](CO)[C@H](O)[C@H]1O` [STREPTOMYCIN] registered an MIC of 2 µg/mL (≈ 3.44 µM).
Compound `COc1c(O)cc2oc(-c3ccc(O)cc3)cc(=O)c2c1O` [HISPIDULIN] registered an MIC of 100 µg/mL (≈ 333 µM).
The compound `O=c1c(O)c(-c2cc(O)c(O)c(O)c2)oc2cc(O)cc(O)c12` [MYRICETIN] came in with a minimum inhibitory concentration (MIC) of 50 µg/mL (≈ 157 µM).

Another experiment deals with Mycobacterium tuberculosis. The experiment can be described thus: Antitubercular activity against Mycobacterium tuberculosis H37Rv ATCC 27294 at 100 ug/ml measured every 24 hr by BACTEC 460 radiometric assay.
Conditions: not given
Type of experiment: functional, organism-based.
For `C[C@H]1O[C@H](Oc2c(-c3ccc(O)cc3)oc3cc(O)cc(O)c3c2=O)[C@@H](O)[C@@H](O)[C@@H]1O`, the outcome was inactive.
For the compound `COc1ccc([C@@H]2CC(=O)c3c(O)cc(O[C@@H]4O[C@H](CO[C@@H]5O[C@@H](C)[C@H](O)[C@@H](O)[C@H]5O)[C@@H](O)[C@H](O)[C@H]4O)cc3O2)cc1O`, the result was inactive.
With `O=c1cc(-c2ccc(O)cc2)oc2cc(O)cc(O)c12`, the result was inactive.
Consider `O=c1c(O)c(-c2ccc(O)cc2)oc2cc(O)cc(O)c12`, for which the result was inactive.
With `C[C@@H]1O[C@@H](OC[C@H]2O[C@@H](Oc3c(-c4ccc(O)c(O)c4)oc4cc(O)cc(O)c4c3=O)[C@H](O)[C@@H](O)[C@@H]2O)[C@H](O)[C@H](O)[C@H]1O`, the result was inactive.
Consider `O=c1c(O)c(-c2ccccc2)oc2cc(O)cc(O)c12`, for which the result was inactive.
Consider `O=c1cc(-c2ccccc2)oc2cc(O)cc(O)c12`, for which the outcome was inactive.
In the case of `O=c1cc(-c2ccc(O)cc2)oc2cc(OC3O[C@H](CO)[C@@H](O)[C@H](O)[C@H]3O)cc(O)c12` (some centres not stated), the outcome was inactive.
Regarding `COc1c(O)cc2oc(-c3ccccc3)cc(=O)c2c1O`, the outcome was inactive.
With `COc1ccc(-c2oc3cc(OC)c(OC)c(O)c3c(=O)c2OC)cc1O`, the result was inactive.
